Data taken from ChEMBL document CHEMBL5291721, “A preclinical secondary pharmacology resource illuminates target-adverse drug reaction associations of marketed drugs” (Nat Commun, 2023).

Experiments:
[1] = target: Gamma-aminobutyric acid receptor subunit alpha-1/alpha-2/beta-2/gamma-2 (Homo sapiens, UniProt P14867+P18507+P47869+P47870); format: protein-complex assay
[2] = target: cGMP-inhibited 3',5'-cyclic phosphodiesterase 3A (Homo sapiens, UniProt Q14432); format: functional
[3] = target: Sodium-dependent noradrenaline transporter (Homo sapiens, UniProt P23975)
Sequence of Sodium-dependent noradrenaline transporter (P23975 whole entry): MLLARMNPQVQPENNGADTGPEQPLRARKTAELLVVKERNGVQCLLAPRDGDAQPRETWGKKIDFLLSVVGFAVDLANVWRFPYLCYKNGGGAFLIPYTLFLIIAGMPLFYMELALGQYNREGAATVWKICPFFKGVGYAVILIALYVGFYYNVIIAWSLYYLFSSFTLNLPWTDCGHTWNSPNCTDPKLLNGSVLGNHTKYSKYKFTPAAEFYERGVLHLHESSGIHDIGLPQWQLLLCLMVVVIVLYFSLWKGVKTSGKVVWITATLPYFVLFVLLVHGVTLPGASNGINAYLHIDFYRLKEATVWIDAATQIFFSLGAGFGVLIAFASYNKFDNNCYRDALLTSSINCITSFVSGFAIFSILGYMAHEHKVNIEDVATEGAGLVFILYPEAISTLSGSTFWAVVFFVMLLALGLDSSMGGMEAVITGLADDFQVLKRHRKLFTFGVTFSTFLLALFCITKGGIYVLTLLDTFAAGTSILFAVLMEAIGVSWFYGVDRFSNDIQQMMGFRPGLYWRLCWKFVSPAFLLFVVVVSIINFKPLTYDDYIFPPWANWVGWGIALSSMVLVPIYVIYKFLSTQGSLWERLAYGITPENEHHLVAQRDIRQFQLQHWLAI

[4] = target: Histamine H3 receptor (Homo sapiens, UniProt Q9Y5N1)
Sequence of Histamine H3 receptor (Q9Y5N1 whole entry): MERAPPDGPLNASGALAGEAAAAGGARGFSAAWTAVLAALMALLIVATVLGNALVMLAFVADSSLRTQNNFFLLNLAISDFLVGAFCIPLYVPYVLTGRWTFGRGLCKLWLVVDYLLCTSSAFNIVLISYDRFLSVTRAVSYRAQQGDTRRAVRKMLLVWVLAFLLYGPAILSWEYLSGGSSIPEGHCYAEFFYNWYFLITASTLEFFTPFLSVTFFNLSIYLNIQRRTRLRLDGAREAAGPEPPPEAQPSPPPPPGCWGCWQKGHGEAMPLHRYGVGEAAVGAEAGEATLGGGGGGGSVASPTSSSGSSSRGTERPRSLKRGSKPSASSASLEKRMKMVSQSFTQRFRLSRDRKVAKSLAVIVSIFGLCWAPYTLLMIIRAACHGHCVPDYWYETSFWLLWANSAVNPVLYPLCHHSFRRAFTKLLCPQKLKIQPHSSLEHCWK

[5] = target: Vascular endothelial growth factor receptor 2 (Homo sapiens, UniProt P35968); format: functional
Sequence of Vascular endothelial growth factor receptor 2 (P35968 whole entry): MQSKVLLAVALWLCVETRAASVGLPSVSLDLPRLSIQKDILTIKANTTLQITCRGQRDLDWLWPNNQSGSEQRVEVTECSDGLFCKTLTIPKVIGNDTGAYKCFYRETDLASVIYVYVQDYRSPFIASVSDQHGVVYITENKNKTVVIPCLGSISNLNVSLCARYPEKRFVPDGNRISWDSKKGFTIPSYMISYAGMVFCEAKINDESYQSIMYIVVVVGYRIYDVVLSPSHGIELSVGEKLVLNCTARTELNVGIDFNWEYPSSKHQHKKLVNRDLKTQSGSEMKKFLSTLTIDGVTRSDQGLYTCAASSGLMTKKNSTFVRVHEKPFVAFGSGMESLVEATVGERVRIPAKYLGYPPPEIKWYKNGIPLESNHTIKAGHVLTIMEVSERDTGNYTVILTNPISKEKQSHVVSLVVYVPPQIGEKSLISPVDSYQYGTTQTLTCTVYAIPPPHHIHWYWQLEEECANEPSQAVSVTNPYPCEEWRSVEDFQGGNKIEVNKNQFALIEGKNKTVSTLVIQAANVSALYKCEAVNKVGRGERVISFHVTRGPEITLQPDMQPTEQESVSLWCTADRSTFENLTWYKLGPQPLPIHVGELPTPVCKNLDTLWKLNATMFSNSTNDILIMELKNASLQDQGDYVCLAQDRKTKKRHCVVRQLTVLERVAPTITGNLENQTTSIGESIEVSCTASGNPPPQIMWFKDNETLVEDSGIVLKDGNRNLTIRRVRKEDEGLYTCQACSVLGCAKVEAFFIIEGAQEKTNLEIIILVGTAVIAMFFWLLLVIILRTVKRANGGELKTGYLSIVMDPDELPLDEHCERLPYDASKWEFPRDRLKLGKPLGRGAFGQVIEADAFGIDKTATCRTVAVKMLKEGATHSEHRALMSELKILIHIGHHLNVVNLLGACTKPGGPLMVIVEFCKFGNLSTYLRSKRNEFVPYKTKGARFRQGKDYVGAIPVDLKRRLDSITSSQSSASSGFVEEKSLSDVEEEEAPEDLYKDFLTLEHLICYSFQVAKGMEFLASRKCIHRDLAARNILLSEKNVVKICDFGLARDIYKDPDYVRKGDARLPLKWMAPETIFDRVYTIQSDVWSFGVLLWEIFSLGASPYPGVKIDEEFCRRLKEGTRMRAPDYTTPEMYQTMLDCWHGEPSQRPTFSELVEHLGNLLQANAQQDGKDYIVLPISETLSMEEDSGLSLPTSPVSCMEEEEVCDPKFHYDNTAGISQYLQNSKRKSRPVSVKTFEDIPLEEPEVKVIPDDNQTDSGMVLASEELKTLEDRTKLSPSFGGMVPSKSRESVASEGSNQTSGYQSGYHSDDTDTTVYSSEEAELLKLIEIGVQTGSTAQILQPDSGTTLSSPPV

[6] = target: 3',5'-cyclic-AMP phosphodiesterase 4A (Homo sapiens, UniProt P27815); format: functional
[7] = target: T1, Progesterone receptor (Homo sapiens, UniProt P06401)
T1 sequence (P06401 whole entry): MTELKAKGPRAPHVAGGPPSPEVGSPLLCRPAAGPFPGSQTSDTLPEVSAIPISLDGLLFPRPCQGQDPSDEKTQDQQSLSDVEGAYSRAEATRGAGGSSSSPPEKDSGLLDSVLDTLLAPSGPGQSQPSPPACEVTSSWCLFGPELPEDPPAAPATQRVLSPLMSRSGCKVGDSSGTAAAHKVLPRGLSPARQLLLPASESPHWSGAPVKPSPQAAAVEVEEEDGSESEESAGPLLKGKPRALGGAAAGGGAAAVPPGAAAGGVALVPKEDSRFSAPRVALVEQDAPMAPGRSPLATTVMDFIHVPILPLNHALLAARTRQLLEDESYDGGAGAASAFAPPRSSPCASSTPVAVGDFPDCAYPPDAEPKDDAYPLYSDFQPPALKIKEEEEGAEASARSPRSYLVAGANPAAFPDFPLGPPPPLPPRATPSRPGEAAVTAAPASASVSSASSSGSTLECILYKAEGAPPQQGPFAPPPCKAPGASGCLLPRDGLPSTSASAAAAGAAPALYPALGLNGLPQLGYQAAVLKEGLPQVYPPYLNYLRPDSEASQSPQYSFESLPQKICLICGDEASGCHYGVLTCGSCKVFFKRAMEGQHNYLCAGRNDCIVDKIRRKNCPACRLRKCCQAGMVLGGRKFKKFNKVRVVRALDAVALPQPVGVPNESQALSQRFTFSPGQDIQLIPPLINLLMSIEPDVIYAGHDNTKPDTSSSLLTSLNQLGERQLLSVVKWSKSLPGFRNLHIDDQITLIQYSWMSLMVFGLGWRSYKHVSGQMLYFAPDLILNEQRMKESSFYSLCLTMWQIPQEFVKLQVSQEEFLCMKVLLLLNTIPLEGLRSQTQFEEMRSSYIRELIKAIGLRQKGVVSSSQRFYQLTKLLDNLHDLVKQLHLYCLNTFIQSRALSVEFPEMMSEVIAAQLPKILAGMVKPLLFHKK

[8] = target: D(3) dopamine receptor (Homo sapiens, UniProt P35462)
Sequence of D(3) dopamine receptor (P35462 whole entry): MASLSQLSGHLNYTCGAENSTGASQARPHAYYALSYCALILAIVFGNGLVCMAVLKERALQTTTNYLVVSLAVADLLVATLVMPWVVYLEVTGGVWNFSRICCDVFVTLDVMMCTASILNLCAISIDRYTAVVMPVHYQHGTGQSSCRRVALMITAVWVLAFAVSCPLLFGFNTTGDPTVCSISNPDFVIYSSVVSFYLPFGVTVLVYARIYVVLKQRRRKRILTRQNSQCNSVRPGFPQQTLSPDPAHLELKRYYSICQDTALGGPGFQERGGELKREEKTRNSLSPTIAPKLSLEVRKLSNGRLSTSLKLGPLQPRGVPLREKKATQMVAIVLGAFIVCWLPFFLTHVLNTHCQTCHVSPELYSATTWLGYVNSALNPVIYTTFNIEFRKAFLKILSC

[9] = target: 5-hydroxytryptamine receptor 2B (Homo sapiens, UniProt P41595); format: functional, cell-based
Sequence of 5-hydroxytryptamine receptor 2B (P41595 whole entry): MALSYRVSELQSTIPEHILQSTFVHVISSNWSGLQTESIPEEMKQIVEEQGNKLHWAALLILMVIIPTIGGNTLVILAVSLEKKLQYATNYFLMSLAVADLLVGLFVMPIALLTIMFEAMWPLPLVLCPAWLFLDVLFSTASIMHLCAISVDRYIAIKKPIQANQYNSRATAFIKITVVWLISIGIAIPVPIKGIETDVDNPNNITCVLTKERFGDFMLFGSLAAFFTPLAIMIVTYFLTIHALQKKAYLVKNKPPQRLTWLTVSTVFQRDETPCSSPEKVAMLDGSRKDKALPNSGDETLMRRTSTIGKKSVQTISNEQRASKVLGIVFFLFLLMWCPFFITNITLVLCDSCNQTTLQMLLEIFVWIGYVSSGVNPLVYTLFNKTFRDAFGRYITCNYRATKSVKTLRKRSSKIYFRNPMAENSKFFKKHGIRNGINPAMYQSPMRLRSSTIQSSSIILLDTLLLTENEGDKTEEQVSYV

[10] = target: Voltage-gated inwardly rectifying potassium channel KCNH2 (Homo sapiens, UniProt Q12809); format: functional; conditions: read-out: AC50
[11] = target: Gamma-aminobutyric acid receptor subunit alpha-1 (Rattus norvegicus, UniProt P62813)
Sequence of Gamma-aminobutyric acid receptor subunit alpha-1 (P62813 whole entry): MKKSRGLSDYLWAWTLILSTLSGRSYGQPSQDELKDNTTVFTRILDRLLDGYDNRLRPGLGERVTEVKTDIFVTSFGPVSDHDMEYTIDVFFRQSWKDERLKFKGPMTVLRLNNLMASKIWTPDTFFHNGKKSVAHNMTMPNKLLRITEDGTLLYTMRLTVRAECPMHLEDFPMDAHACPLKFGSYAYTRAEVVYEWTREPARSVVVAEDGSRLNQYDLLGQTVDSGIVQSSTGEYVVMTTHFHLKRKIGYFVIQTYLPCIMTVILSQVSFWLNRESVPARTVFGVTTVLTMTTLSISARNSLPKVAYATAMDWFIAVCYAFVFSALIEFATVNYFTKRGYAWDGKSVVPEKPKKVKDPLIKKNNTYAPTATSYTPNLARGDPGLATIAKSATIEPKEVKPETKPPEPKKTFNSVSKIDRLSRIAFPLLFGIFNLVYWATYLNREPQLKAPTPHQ

[12] = target: T2, Thromboxane A2 receptor (Homo sapiens, UniProt P21731)
T2 sequence (P21731 whole entry): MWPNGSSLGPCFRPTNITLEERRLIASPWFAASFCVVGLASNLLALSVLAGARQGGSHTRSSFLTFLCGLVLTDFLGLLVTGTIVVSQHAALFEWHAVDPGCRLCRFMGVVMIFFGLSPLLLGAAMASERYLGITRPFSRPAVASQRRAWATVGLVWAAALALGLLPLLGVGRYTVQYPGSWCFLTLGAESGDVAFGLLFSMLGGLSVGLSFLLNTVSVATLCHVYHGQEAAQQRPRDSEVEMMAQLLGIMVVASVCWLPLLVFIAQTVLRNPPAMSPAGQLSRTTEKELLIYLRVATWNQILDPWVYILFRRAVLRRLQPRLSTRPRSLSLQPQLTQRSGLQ
Note: assay procedure not described here.

Sequence of cGMP-inhibited 3',5'-cyclic phosphodiesterase 3A (Q14432 whole entry): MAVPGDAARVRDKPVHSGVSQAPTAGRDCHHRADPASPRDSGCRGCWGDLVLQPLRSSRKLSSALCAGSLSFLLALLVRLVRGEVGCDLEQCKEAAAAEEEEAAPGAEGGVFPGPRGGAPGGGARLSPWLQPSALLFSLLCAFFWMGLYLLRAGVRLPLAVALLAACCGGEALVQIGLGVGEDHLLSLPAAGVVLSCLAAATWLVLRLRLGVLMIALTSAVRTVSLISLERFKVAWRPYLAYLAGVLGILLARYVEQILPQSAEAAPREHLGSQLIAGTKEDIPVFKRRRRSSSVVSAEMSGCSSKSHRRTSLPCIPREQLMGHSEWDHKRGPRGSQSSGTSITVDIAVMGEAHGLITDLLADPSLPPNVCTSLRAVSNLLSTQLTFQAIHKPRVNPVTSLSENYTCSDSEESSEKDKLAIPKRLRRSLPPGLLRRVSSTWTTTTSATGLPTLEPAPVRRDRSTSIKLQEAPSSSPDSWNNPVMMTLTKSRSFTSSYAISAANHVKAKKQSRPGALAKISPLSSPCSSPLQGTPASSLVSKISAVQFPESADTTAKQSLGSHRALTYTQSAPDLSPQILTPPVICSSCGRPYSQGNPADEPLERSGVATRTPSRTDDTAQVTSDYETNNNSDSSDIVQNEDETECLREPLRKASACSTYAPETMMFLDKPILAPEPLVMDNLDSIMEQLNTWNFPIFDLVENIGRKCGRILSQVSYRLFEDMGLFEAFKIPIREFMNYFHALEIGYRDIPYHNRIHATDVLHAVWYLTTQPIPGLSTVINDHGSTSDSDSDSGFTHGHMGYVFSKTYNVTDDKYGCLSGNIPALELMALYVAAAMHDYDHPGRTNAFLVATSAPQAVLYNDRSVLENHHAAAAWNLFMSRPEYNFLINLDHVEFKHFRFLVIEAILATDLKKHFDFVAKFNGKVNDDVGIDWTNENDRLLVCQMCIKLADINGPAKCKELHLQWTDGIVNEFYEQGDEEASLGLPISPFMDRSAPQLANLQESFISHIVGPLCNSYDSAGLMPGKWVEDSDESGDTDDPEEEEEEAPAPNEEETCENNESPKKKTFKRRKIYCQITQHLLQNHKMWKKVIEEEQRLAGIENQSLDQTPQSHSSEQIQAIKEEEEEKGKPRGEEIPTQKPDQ

| SMILES | AC50 [1] [µM] | AC50 [2] [µM] | AC50 [3] [µM] | AC50 [4] [µM] | AC50 [5] [µM] | AC50 [6] [µM] | AC50 [7] [µM] | AC50 [8] [µM] | AC50 [9] [µM] | AC50 [10] [µM] | AC50 [11] [µM] | AC50 [12] [µM] |
| --- | --- | --- | --- | --- | --- | --- | --- | --- | --- | --- | --- | --- |
| O=c1[nH]c(=O)n([C@H]2C[C@H](O)[C@@H](CO)O2)cc1F [FLOXURIDINE] | > 30 | > 30 | > 30 | > 30 | > 30 | > 30 | > 30 | > 30 | > 30 | > 30 |  |  |
| COc1ccc(C(=O)Nc2ccccc2CCC2CCCCN2C)cc1 (centres undefined) [ENCAINIDE] |  | > 30 | > 30 | > 30 | > 30 | > 30 | > 30 | > 30 | > 30 |  | > 30 | > 30 |
| CCOC(=O)[C@H](CCc1ccccc1)N[C@@H](C)C(=O)N1CC2(C[C@H]1C(=O)O)SCCS2 | > 30 | > 30 | > 30 | > 30 | > 10 | > 30 | > 30 | > 30 | > 30 | > 30 |  |  |
| OC[C@@H](O)[C@H](O)[C@@H](O)CO [XYLITOL] | > 30 | > 30 | > 30 | > 30 | > 30 | > 30 | > 30 | > 30 | > 30 | > 30 |  |  |
| CCCC1O[C@@H]2C[C@H]3[C@@H]4CCC5=CC(=O)C=C[C@]5(C)[C@H]4[C@@H](O)C[C@]3(C)[C@]2(C(=O)CO)O1 (some centres undefined) [BUDESONIDE] | > 30 | > 30 | > 30 | > 30 | > 30 | > 30 |  | > 30 | > 30 | > 30 |  | > 10 |
| NNc1nnc(NN)c2ccccc12 [DIHYDRALAZINE] | > 30 | > 30 | > 30 | > 30 | > 30 | > 30 |  | > 30 | > 30 | 0.44 |  |  |
| COc1ccc2c(c1)N(C[C@H](C)CN(C)C)c1ccccc1S2 [LEVOMEPROMAZINE] | > 30 | > 30 | > 30 | > 30 | > 30 | > 30 | > 30 | 0.019 | > 30 | 11 |  |  |
| C=CCN1C[C@H](C(=O)N(CCCN(C)C)C(=O)NCC)C[C@@H]2c3cccc4[nH]cc(c34)C[C@H]21 [CABERGOLINE] | > 30 | > 30 | 29.6 | > 30 | > 30 | > 30 | > 30 | 0.003 | 0.0032 | 7.68 |  | > 10 |
| O=c1[nH]c(=O)n([C@H]2C[C@H](O)[C@@H](CO)O2)cc1I [IDOXURIDINE] | > 30 | > 30 | > 30 | > 30 | > 30 | > 30 | > 30 | > 30 | > 30 | > 30 |  |  |
| CCN(CC)CCOC(=O)C(c1ccccc1)C1CCCCC1 (centres undefined) [DROFENINE] | > 30 | > 30 | 13 | > 30 | > 30 | > 30 | > 30 | 0.217 | > 30 | 4.7 |  |  |
| N=c1ccn2c(n1)O[C@H]1[C@H](O)[C@@H](CO)O[C@H]12 [ANCITABINE] | > 30 | > 30 | > 30 | > 30 | > 30 | > 30 | > 30 | > 30 | > 30 | > 30 |  |  |
| CC[C@@H](C(N)=O)N1CCCC1=O | > 30 | > 30 | > 30 | > 30 | > 30 | > 30 | > 30 | > 30 | > 30 | > 30 |  |  |
| NC1=NCC2c3ccccc3Cc3ccccc3N12 (centres undefined) [EPINASTINE] | 28.3 | > 30 | 4.58 | > 30 | > 30 | > 30 | > 30 | > 30 | > 30 |  |  |  |
| CC(=O)Oc1c(C)c(C)c2c(c1C)CC[C@@](C)(CCC[C@H](C)CCC[C@H](C)CCCC(C)C)O2 | > 30 | 0.933 | > 30 | > 30 | > 30 | 9.38 | > 30 | > 30 | > 30 | > 30 |  |  |
| COc1cc2c3cc1Oc1cc(ccc1O)C[C@@H]1c4c(cc(OC)c(O)c4Oc4ccc(cc4)C[C@@H]3N(C)CC2)CC[N+]1(C)C [TUBOCURARINE] | > 30 | > 30 | > 30 | > 30 | > 30 | > 30 | > 30 | > 30 | > 30 | > 30 |  |  |
| CC(C)C[C@H]1C(=O)N2CCC[C@H]2[C@]2(O)O[C@](NC(=O)[C@@H]3C[C@@H]4c5cccc6[nH]cc(c56)C[C@H]4N(C)C3)(C(C)C)C(=O)N12 [DIHYDROERGOCRYPTINE] | > 30 | > 30 | > 30 | > 30 | > 30 | > 30 | > 30 | 0.202 | > 30 | > 30 |  |  |
| CCN(CC)CCNc1ccc(CO)c2sc3ccccc3c(=O)c12 [HYCANTHONE] |  | > 30 | 11.9 | 2.14 | > 30 | > 30 | > 30 | 19.5 | > 30 | 3.6 | > 30 |  |
| CCCNC(C)C(=O)Nc1c(C)csc1C(=O)OC (centres undefined) [ARTICAINE] | > 30 | > 30 | > 30 | > 30 | > 30 | > 30 | > 30 | > 30 | > 30 | > 30 |  |  |
| CC(=O)Oc1ccc2c(c1)CC[C@@H]1[C@@H]2CC[C@]2(C)[C@@H](O)CC[C@@H]12 [ESTRADIOL ACETATE] | > 30 | > 30 | > 30 | > 30 | > 30 | > 30 | 0.209 | > 30 | > 30 | > 30 |  |  |
| CC(C)(C)C(=O)C(Oc1ccc(Cl)cc1)n1ccnc1 (centres undefined) [CLIMBAZOLE] | > 30 | > 30 | 20.8 | > 30 | > 30 | > 30 | > 30 | > 30 | > 30 | > 30 |  |  |
| CC(=O)c1ccc2c(c1)N(CCCN(C)C)c1ccccc1S2 [ACEPROMAZINE] | > 30 | > 30 | 0.161 | > 30 | > 30 | > 30 | > 30 | 0.0087 | > 30 | 2.5 |  |  |
